Measured values reported in US11945784B2, “IRE1 small molecule inhibitors” (Cornell University, priority 2018, dated 2024).

What was measured:
293T cells = assay: Growth assay (cytotoxicity); type: cell-based; conditions: Homo sapiens, HEK-293T, 48 h, 2 day incubation, read-out: percentage growth at 5 uM
Method: A growth assay is performed to evaluate the compounds disclosed in Table 1 for cytotoxicity. Briefly, 5,000,000 293T cells are resuspended in 18 mL of cDMEM for a final concentration of 277,777 cells/mL. 180 μL (50,000 cells) cDMEM was seeded per well in 96 well flat bottom plate, with some wells left unfilled. In a 96 well plate, […] cDMEM and 1 uL of any one of the compounds disclosed herein. 133.3 uL cDMEM is added to wells 1, 2, 3, 5, 6, 7, 9, 10, and 11 of row A. Wells are serially diluted with 66.7 uL (highest concentration on right, lowest on left) to the total concentrations shown below. 20 uL of each dilution is transferred in duplicate to the cells plated in the 96-well plate. The plate is then placed in a humidified chamber for a 2 day incubation, and then photographed (media is more yellow in wells with potent cell growth). Absorbance is then measured at […] (lower for more acidic media) and […] (higher for more acidic media).

IRE1α [1] = biological target: T1, IRE1α (Homo sapiens (Human), UniProt O75460); assay: In vitro luciferase assay (IRE1α Endoribonuclease Nanoluciferase Assay); type: cell-based; conditions: 293T cells, XBP1 luciferase reporter
Procedure, shortened: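 293T cells transiently transfected with a PGK-Luc2-P2A-XBP1u-nanoluciferase-PEST reporter for IRE1α-dependent XBP1 splicing, replated, and treated next day with ER stressors ± inhibitors. Lysates read sequentially for luminescence (OneGlo, then Stop and Glo), 1000 ms integration.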

IRE1 = IRE1 (Homo sapiens (Human), UniProt O75460); assay: qPCR assay of XBP1 splicing; type: cell-based; conditions: 293T cells, tunicamycin-induced ER stress
Method: A quantitative PCR (qPCR) assay was performed to evaluate the ability of compound 17 and compound 23 to inhibit IRE1. To perform the qPCR assay, 50,000 293T cells were plated in each well of a flat-bottomed 96 well plates in duplicate. Test compounds or DMSO control were diluted to 4× their final concentration and 50 microliters were added to the cells. Compounds were incubated for 1 hour, then 50 microliters of 4× concentrated tunicamycin (8 ug/mL) were added to the cells to induce ER stress. ER stress was allowed to accumulate for 6 hours, after which the supernatant was removed and the cells were lysed with 150 uL of RLT lysis buffer (Qiagen). Samples were frozen at −80 degrees Celsius until RNA was isolated with the RNeasy 96 kit (Qiagen) according to the manufacturer's recommended protocol. The samples were used for subsequent RT-qPCR analysis of beta-actin, XBP1s, total XBP1 and SEC24D. Gene expression was evaluated by quantitative PCR for XBP1s, total XBP1 and SEC24D transcripts using the 2^(−ΔCT) method for calculating normalized gene expression. Gene expression levels were normalized to ACTB transcripts. XBP1 splicing is calculated as XBP1s expression divided by total XBP1 expression. […] See FIG. 3A (Compound 17) and FIG. 3B (Compound 23).

IRE1α [2] = biological target: T1, IRE1α; assay: In vitro FRET assay; type: biochemical; conditions: XBP1 RNA probe
Procedure, shortened: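 IRE1α (diluted to 2 nM) in citrate buffer pH 7.15 with serially diluted compound; FAM/Iowa Black-quenched XBP1 RNA probe (wildtype or non-spliceable mutant) added, fluorescence read […]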

T1 sequence (O75460 19-977): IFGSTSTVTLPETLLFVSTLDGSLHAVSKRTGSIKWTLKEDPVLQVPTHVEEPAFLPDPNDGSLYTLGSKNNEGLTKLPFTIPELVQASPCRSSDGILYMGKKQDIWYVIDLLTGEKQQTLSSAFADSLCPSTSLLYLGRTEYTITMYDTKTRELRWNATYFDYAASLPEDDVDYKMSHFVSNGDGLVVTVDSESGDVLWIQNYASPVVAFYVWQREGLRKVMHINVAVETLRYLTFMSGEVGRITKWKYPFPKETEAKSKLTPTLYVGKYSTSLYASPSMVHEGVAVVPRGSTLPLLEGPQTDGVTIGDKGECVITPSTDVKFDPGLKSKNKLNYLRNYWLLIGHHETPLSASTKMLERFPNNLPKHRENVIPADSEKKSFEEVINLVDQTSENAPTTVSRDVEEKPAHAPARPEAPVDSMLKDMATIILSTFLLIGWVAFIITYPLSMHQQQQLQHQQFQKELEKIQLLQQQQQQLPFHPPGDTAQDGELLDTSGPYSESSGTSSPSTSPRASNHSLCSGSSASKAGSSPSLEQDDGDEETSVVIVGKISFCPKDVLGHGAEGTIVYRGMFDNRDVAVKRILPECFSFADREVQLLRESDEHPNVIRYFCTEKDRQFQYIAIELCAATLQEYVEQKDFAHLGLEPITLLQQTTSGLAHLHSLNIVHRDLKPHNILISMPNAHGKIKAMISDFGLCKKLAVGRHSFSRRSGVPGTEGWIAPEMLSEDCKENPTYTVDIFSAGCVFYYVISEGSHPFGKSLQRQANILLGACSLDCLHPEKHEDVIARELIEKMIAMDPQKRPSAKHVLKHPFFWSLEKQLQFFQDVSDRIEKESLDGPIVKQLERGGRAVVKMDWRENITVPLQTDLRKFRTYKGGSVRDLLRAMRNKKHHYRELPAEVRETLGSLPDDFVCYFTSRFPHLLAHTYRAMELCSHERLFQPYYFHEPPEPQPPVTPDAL
Chain of IRE1 (O75460 19-977): as above

SMILES | viability at 5 µM (293T cells) [%] | EC50 (IRE1α [1]) [nM] | IC50 (IRE1) [nM] | IC50 (IRE1α [2]) [nM]
COc1nc(NS(=O)(=O)c2ccccc2Cl)ccc1/C=C/c1cnc(NC2CCC(N(C)C)CC2)nc1 (centres unmarked) [Compound 17, 2-chloro-N-(5-((E)-2-(2-(((1r,4r)-4-(dimethylamino)cyclohexyl)amino)pyrimidin-5-yl)vinyl)-6-methoxypyridin-2-yl)benzenesulfonamide] | > 75 | ≤ 5 | 4.95 | ≤ 1
Cc1nc(NS(=O)(=O)c2ccccc2Cl)ccc1/C=C/c1cnc(NC2CCC(N(C)C)CC2)nc1 (centres unmarked) [Compound 23, 2-chloro-N-(5-((E)-2-(2-(((1r,4r)-4-(dimethylamino)cyclohexyl)amino)pyrimidin-5-yl)vinyl)-6-methylpyridin-2-yl)benzenesulfonamide] | > 75 | ≤ 5 | 4.39 | ≤ 1
CCc1nc(NS(=O)(=O)c2ccccc2Cl)ccc1C=Cc1cnc(NC2CCC(N)CC2)nc1 (centres unmarked) [Compound 45, N-(5-(2-(2-((1r,4r)-4-aminocyclohexyl)amino)pyrimidin-5-yl)vinyl)-6-ethylpyridin-2-yl)-2-chlorobenzenesulfonamide] | > 75 | 5 to 50 | – | ≤ 1
CCc1nc(NS(=O)(=O)c2ccccc2Cl)ccc1/C=C/c1cnc(NC2CCC(NC)CC2)nc1 (centres unmarked) [Compound 47, 2-chloro-N-(6-ethyl-5-((E)-2-(2-(((1r,4r)-4-(methylamino)cyclohexyl)amino)pyrimidin-5-yl)vinyl)pyridin-2-yl)benzenesulfonamide] | > 75 | 5 to 50 | – | ≤ 1
